Key:
HNF4α = molecular target: T1, HNF4α (Mus musculus, UniProt P49698); assay: Immunofluorescence of hepatic HNF4α in HFD mice; format: in vivo; conditions: oral NCT in HFD chow, 10 weeks
T1 construct: from tissue; host or cells: liver of C57BL/6J mice
Experimental: Frozen liver sections were permeabilized using 0.3% Triton-X and incubated in antigen retrieval solution (Antigen retrieval citrate, Biogenex) at sub-boiling temperature for 10 min. Subsequently, sections were incubated with blocking buffer containing 5% normal donkey serum (Jackson Immuno Research) followed by incubation overnight at 4° C. with mouse anti-HNF4α monoclonal antibody (1:800, Cat #PP-H1415-00, R&D Systems), rabbit polyclonal anti-VDAC antibody (1:400, cat #PA1-954A, Invitrogen) and cleaved caspase3 antibody (1:500, cat #9664, Cell Signaling). Sections were washed and incubated for 1 hour at room temperature with anti-mouse secondary antibody coupled with Alexa fluor 488 (1:400, Invitrogen) and antirabbit secondary antibody coupled with rhodamine red. Nuclei were visualized by counterstaining with DAPI (40,6-diamidino-2-phenylindole, Sigma Aldrich). Slides were mounted using fluorescence mounting medium and images were obtained at 40× magnification using an Olympus IX71 fluorescence microscope. Fluorescence intensity of HNF4α-stained nuclei and VDAC stained mitochondria was calculated using MetaMorph TL software (version 7.6.5.0, Olympus). Fold change was calculated by normalizing to values from mice fed NC.

[1] = Free fatty acid quantification in serum; format: in vivo, mouse; conditions: HFD+NCT vs HFD, 10 weeks
Experimental: Blood samples were collected from dextrose injected mice and centrifuged to collect serum samples. The serum FFA level was measured according to manufacturer's instructions using a Free Fatty Acid Quantification Colorimetric/Fluorometric Kit (Cat #K612, BioVision, USA). Fold change was calculated by normalizing to values from mice fed NC.

cytochrome C = assay: Western blot, mouse liver, cytochrome C; format: in vivo; conditions: HFD+NCT vs HFD
Experimental: (§1) Mouse liver extracts were prepared by incubation in RIPA buffer (Invitrogen) containing protease inhibitors (Calbiochem, San Diego, CA). Protein was quantified by BCA assay (Thermo Scientific). Protein ([…] for cytochrome C) was separated on 12% or 16% Tri-Glycine gels (Invitrogen) and transferred to Immobilon P membrane (0.2 μm pore size, Millipore). After 1 hour in phosphate-buffered saline-Tween (PBST) with 3% milk, membranes were incubated with antibodies to PPARGC1A(PGC1α) (Cat #NBP1-04676, Novus, 1:1000), SDHA XP (Cat #11998, Cell Signaling 1:1000), or Cytochrome C (Cat #4280, Cell Signaling 1:500), followed by secondary antibody conjugated to horseradish peroxidase (1:5000, Jackson Immune or Cell Signaling). […] After detection, membrane was incubated with Ponceau S solution (Sigma) for 1 hr for normalization to loaded protein.

[2] = test system: succinate dehydrogenase (SDHA); assay: Western blot, mouse liver, SDHA; format: in vivo; conditions: HFD+NCT vs HFD
Experimental: as §1

HSP60 mRNA = assay: qPCR mouse liver, HSP60 mRNA; format: in vivo; conditions: HFD+NCT vs HFD
Experimental: (§2) Total RNA was isolated from liver tissues and primary human hepatocytes using Trizol (Invitrogen). cDNA was amplified using 3 μg of total RNA using qScript cDNA SuperMix (Quanta BioSciences, Beverly, MA, USA). Quantitative real time PCR (RT-PCR) analysis was performed using SYBR® Select Master Mix (Applied Biosystems) and an ABI 7900HT thermal cycler (Applied Biosystems, Thermo Fisher Scientific). Ct values were normalized to 18s rRNA and are expressed as fold change over samples from mice fed NC or cultured human hepatocytes without NCT.

Parp1 mRNA = assay: qPCR mouse liver, Parp1 mRNA; format: in vivo; conditions: HFD+NCT vs HFD
Experimental: as §2

Parp2 mRNA = assay: qPCR mouse liver, Parp2 mRNA; format: in vivo; conditions: HFD+NCT vs HFD
Experimental: as §2

SDHA mRNA = assay: qPCR primary human hepatocytes, SDHA mRNA; format: cell-based; conditions: NCT 5, 15, 40 μM
Experimental: (§3) Experiments with primary human hepatocytes were performed by CN-Bio (Cambridge, UK). Briefly, primary human hepatocytes (PHHs), human Kupffer cells (HKs) and human stellate cells (HSCs) were seeded onto CN-Bio's PhysioMimix LC12 MPS culture plates at 6×10^5 cells for PHHs and 6×10^4 cells for HKs and HSCs in 1.6 ml of CN-Bio's HEP-lean media with 5% FCS. Throughout the experiment the cells were maintained at a flow rate of 1 μl/s. After 24 hours (Day 1) of seeding, the media was changed to HEP-lean media and the cells were incubated until day 4 to allow the cells to form microtissues. At day 4 post seeding, media was changed to HEP-fat media and treated with DMSO or NCT (5, 15, 40 μM). Media was replaced on days 6 and 8. Cells were harvested on day 10 for RNA extraction and culture media was collected for ELISA analysis.
as §2

PPARGC1A mRNA = assay: qPCR primary human hepatocytes, PPARGC1A mRNA; format: cell-based; conditions: NCT 5, 15, 40 μM
Experimental: as §3, §2

Sirtuin3 mRNA = assay: qPCR primary human hepatocytes, Sirtuin3 mRNA; format: cell-based; conditions: NCT 5, 15, 40 μM
Experimental: as §3, §2

[3] = Blood count analysis (Hemavet); format: in vivo, mouse; conditions: HFD versus HFD+NCT
Experimental: Mice were anesthetized and 20 μL of whole blood was collected via retro-orbital bleeding in lithium heparin blood collection tubes and 20 different hematologic parameters were measured using a Hemavet 950 FS blood count analyzer (Drew Scientific Group).

[4] = Overall tolerability across studies (maximum tolerated dose, two-week IP, long term oral); format: in vivo; conditions: short-term maximum tolerated dose study, two-week IP 200 mg/kg bid, long term oral administration
From the text: Given the chronic nature of disorders of lipotoxicity, the lack of discernable toxicity of NCT is critical, but this will obviously require additional investigation in human clinical trials.

T1 sequence (P49698 whole entry): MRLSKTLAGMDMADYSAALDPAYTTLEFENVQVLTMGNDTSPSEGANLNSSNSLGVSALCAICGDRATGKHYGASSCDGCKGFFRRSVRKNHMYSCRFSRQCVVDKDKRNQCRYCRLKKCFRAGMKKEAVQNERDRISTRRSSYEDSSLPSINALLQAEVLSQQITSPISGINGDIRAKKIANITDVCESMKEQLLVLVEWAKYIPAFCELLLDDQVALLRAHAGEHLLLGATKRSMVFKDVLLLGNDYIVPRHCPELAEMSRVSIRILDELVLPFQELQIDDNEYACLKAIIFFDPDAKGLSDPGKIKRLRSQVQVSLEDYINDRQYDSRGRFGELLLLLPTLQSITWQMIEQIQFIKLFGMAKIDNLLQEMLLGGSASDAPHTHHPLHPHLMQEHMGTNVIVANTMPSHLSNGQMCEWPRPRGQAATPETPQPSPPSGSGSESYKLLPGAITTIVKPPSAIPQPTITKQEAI

Structure (SMILES): O=C(/C=C/c1ccc(O)c(O)c1)NCCc1ccc(O)cc1 [NCT, N-transcaffeoyltyramine]
- hepatic HNF4α expression (HFD-induced decrease) (HNF4α): reversed
- circulating free fatty acid (FFA) [1]: no difference
- hepatic cytochrome C protein level (HFD-induced decrease) (cytochrome C): reversed
- hepatic succinate dehydrogenase protein level (HFD-induced decrease) [2]: reversed
- HSP60 mRNA in mouse liver (HSP60 mRNA): greatly decreased
- Parp1 mRNA level (Parp1 mRNA): not modulated
- Parp2 mRNA level (Parp2 mRNA): not modulated
- SDHA mRNA in primary human hepatocytes (SDHA mRNA): increased
- PPARGC1A mRNA in primary human hepatocytes (PPARGC1A mRNA): increased
- Sirtuin3 mRNA in primary human hepatocytes (Sirtuin3 mRNA): significant effect
- hematological analysis [3]: no difference
- deleterious effects / toxicity [4]: not seen any deleterious effects
- body weight less than mice fed HFD (HFD+NCT (4000 ppm NCT in chow, approx. 400 mg/kg/d) vs HFD, end of experiment at 10 weeks): ~10 gm
- week at which lower body weight became evident (HFD+NCT vs HFD): 5 week
- difference in body weight (HFD+NCT vs HFD, 10 weeks): 35-40%
- liver redness (HFD+NCT vs HFD, 10 weeks): redder livers
- obesity (appearance) (HFD+NCT vs HFD, 10 weeks): markedly less obese
- epididymal fat pad weight (HFD+NCT vs HFD, end of study, normalized to body weight): no change
- liver weight (HFD+NCT vs HFD, normalized to body weight): lower liver weight
- liver size (HFD+NCT vs HFD, photographs): reduction of liver size
- physical activity or other behaviors (mouse, in vivo): no discernible difference
